Test results as given in patent US20260207565A1, “COMPOUNDS THAT INHIBIT PKMYT1” (Exelixis, Inc., priority 2022, published 2026).
Read-outs that look alike come from different tables or passages of the source.

Assays:
[1] = tested on: phosphorylation of CDK1 at Thr14 in HCC1806 cells; assay: Cell lysate AlphaLISA assay measuring inhibition of phosphorylation of CDK1 Thr14; assay type: cell-based; details: compounds incubated 4 hours, AlphaLISA SureFire Ultra CDK1 Thr14, read-out: Cellular IC50
Description: (§1) Biochemical IC50 values were determined via ADP-Glo™ assay. Cellular IC50 values were determined via AlphaLISA assay.
Cell lysate AlphaLISA® assay measuring inhibition of phosphorvlation of CDK1 Thr14. Inhibition of phosphorylation of CDK1 at Thr14 was determined using AlphaLISAn SureFire® Ultra™ Kit from Perkin Elmer (ALSU-PCDK1-A10K). HCC1806 cells were seeded at 2K cells per well (50 μl/well) in 384-well plates (Corning 3570) and stored overnight at 37° C. and 5% CO2. The following day, the compounds dissolved in DMSO were introduced to the cells and incubated for 4 hours at 37° C. and 5% CO2. The cells were then washed with PBS using Blue® Washer and 10 μl of lysis buffer containing protease inhibitor was added. The plate was placed on an orbital shaker (at 4° C.) for 30 minutes and stored overnight at −80° C. for complete lysing. The next day, the plates were thawed at room temperature for at least 30 min. Reagents were prepared in a dimmed light setting (<100 lumens). The assay was run by first adding 5 μl of the acceptor mix (reaction buffer 1: reaction buffer 2:activation buffer:acceptor beads 47:47:4:2), covering the plate with foil, shaking for 2 minutes, and incubating at RT for 60 minutes. The donor mix (dilution buffer:donor beads 47:3) was then added at 5 μl per well, placed on the shaker for 2 minutes and incubated at RT for 60 minutes before reading the plates on a PHERAstar® plate reader. The results were normalized to DMSO (0% Inhibition) and 3 μM of reference compound.

[2] = molecular target: T1, PKMYT1 (Homo sapiens, UniProt Q99640); assay: ADP-Glo PKMYT1 ATP-depletion assay; details: 50 nM PKMYT1, 13.3 nM CDK1, 88 μM ATP, 120 minutes at RT, read-out: Biochemical IC50
T1 construct: PKMYT1 (93 kD, full length, N-terminal GST tag from Signal Chem); GST (N); purchased Signal Chem
T1 sequence (Q99640 1-499): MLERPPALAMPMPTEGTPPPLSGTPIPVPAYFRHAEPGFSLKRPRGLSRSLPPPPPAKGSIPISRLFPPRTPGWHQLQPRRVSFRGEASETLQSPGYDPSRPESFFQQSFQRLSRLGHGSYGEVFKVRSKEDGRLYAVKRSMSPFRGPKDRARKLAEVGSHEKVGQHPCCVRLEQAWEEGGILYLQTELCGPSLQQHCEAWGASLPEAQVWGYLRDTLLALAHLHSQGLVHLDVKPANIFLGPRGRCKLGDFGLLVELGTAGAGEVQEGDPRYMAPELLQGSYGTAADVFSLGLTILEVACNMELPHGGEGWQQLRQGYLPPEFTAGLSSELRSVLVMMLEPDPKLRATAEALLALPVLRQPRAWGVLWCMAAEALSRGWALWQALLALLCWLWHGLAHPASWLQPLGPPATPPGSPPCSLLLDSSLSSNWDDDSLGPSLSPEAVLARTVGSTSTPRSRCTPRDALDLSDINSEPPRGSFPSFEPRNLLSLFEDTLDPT
Description: as §1
ADP-Glo™ PKMYT1 ATP-depletion assay. The activity of PKMYT1 is measured using a luciferase-luciferin based ATP detection reaction to quantify ATP depletion resulting from kinase-catalyzed phosphoryl transfer to CDK1 or autophosphorylation of PKMYT1. The ADP generated as a byproduct of the reaction is converted to ATP and used to drive a luciferase reaction. Test compounds were dissolved in DMSO and dispensed into Corning 3824 384-well plates prior to the experiment such that the final DMSO concentration was <10%. To the compounds was added 3 μL of PKMYT1 (93 kD, full length, N-terminal GST tag from Signal Chem). The reaction was started by the addition of 2 μL of CDK1 (58 kDa, full length, N-terminal GST tag from Signal Chem) and ATP in assay buffer (50 mM Hepes, 40 mM NaCl, 10 mM MgCl2, 1 mM DTT, 0.1 mg/mL BSA, 2.5 mM MnCl2). Final assay concentrations were 50 nM PKMYT1, 13.3 nM CDK1, and 88 μM ATP. Plates were centrifuged for 1 minute at 1000 RPM and incubated at RT for 120 minutes. After the incubation period, ADP-Glo™ reagent was added and the plates were incubated for another 40 minutes before finally adding the kinase detection reagent, 30 minutes after the addition, plates were placed on a PHERAstar® plate reader and read using the Luminescence Protocol, integration time at 0.5 seconds.

IC50 ([1]; Homo sapiens, HCC1806, 4 h) [nM] | IC50 [2] [nM] | IC50 [1] [nM] | Compound
< 50 | < 50 |  | [2H]c1cc(C)c(-c2cc(C(N)=O)nc3c2c(C#N)cn3CC)c(C)c1O (atropisomer, axis not shown; (P)) [Compound 89, (P)-3-cyano-1-ethyl-4-(3-hydroxy-2,6-dimethylphenyl-4-d)-1H-pyrrolo[2,3-b]pyridine-6-carboxamide]
< 50 | < 50 |  | Cc1ccc(O)c(C)c1-c1cc(C(N)=O)nc2c1c(C#N)cn2CC(F)F (atropisomer, axis not shown; (P)) [Compound 93, (P)-3-cyano-1-(2,2-difluoroethyl)-4-(3-hydroxy-2,6-dimethylphenyl)-1H-pyrrolo[2,3-b]pyridine-6-carboxamide]
< 50 | < 50 |  | Cc1ccc(O)c(C)c1-c1c(N)c(C(N)=O)cc2c1nc(C(F)F)n2C(F)F (atropisomer, axis not shown; (P)) [Compound 94, (P)-6-amino-2,3-bis(difluoromethyl)-7-(3-hydroxy-2,6-dimethyl-phenyl)benzimidazole-5-carboxamide]
< 50 | < 50 |  | Cc1ccc(O)c(C)c1-c1c(N)c(C(N)=O)cc2c1nc(C(F)F)n2-c1ncccc1F (atropisomer, axis not shown; (P)) [Compound 95, (P)-6-amino-2-(difluoromethyl)-3-(3-fluoro-2-pyridyl)-7-(3-hydroxy-2,6-dimethyl-phenyl)benzimidazole-5-carboxamide]
1000 to 5000 | 50 to 500 |  | CCn1cc(-n2ccnc2)c2c(-c3c(C)ccc(O)c3C)cc(C(N)=O)nc21 (atropisomer, axis not shown; (P)) [Compound 97, (P)-1-ethyl-4-(3-hydroxy-2,6-dimethylphenyl)-3-(1H-imidazol-1-yl)-1H-pyrrolo[2,3-b]pyridine-6-carboxamide]
< 50 | < 50 |  | Cc1ccc(O)c(C)c1-c1c(N)c(C(N)=O)cc2c1nnn2C(F)F (atropisomer, axis not shown; (P)) [Compound 98, (P)-5-amino-1-(difluoromethyl)-4-(3-hydroxy-2,6-dimethylphenyl)-1H-benzo[d][1,2,3]triazole-6-carboxamide]
< 50 | < 50 |  | Cc1c(O)cccc1-c1c(N)c(C(N)=O)nc2c1c(C#N)cn2C (racemic) [Compound 4, 5-Amino-3-cyano-4-(3-hydroxy-2-methylphenyl)-1-methyl-1H-pyrrolo[2,3-b]pyridine-6-carboxamide]
< 50 | < 50 |  | Cc1ccc(O)c(C)c1-c1cc(C(N)=O)nc2c1c(C#N)cn2CC(F)(F)F (racemic) [Compound 23, 3-cyano-4-(3-hydroxy-2,6-dimethylphenyl)-1-(2,2,2-trifluoroethyl)pyrrolo[2,3-b]pyridine-6-carboxamide]
50 to 500 | < 50 |  | Cc1ccc(O)c(C)c1-c1cc(C(N)=O)nc2c1c(C#N)c(C)n2C (racemic) [Compound 26, 3-cyano-4-(3-hydroxy-2,6-dimethylphenyl)-1,2-dimethyl-pyrrolo[2,3-b]pyridine-6-carboxamide]
1000 to 5000 | 50 to 500 |  | Cc1ccc(O)c(C)c1-c1cc(C(N)=O)nc2c1c(Cl)cn2C (racemic) [Compound 30, 3-chloro-4-(3-hydroxy-2,6-dimethylphenyl)-1-methyl-1H-pyrrolo[2,3-b]pyridine-6-carboxamide]
≥ 5000 | 500 to 1000 |  | Cc1c(O)cccc1-c1c(N)c(C(N)=O)cn2c(C)nnc12 (racemic) [Compound 51, 7-Amino-8-(3-hydroxy-2-methylphenyl)-3-methyl-[1,2,4]triazolo[4,3-a]pyridine-6-carboxamide]
50 to 500 | < 50 |  | Cc1c(O)cccc1-c1c(N)c(C(N)=O)nc2c1c(C#N)nn2C (racemic) [Compound 54, 5-Amino-3-cyano-4-(3-hydroxy-2-methylphenyl)-1-methyl-1H-pyrazolo[3,4-b]pyridine-6-carboxamide]
 | < 50 | < 50 | Cc1ccc(O)c(C)c1-c1c(N)c(C(N)=O)nc2c1ncn2C (single isomer, unassigned) [Compound 2, (P)-6-Amino-7-(3-hydroxy-2,6-dimethylphenyl)-3-methyl-3H-imidazo[4,5-b]pyridine-5-carboxamide]
 | 1000 to 5000 | ≥ 5000 | Cc1ccc(O)c(C)c1-c1c(N)c(C(N)=O)nc2c1ncn2C (single isomer, unassigned) [Compound 3, (M)-6-amino-7-(3-hydroxy-2,6-dimethylphenyl)-3-methyl-3H-imidazo[4,5-b]pyridine-5-carboxamide]
< 50 | < 50 |  | Cc1c(O)cccc1-c1c(N)c(C(N)=O)nc2c1c(C#N)cn2C (single isomer, unassigned) [Compound 5, (M)-5-Amino-3-cyano-4-(3-hydroxy-2-methylphenyl)-1-methyl-1H-pyrrolo[2,3-b]pyridine-6-carboxamide]
 | 500 to 1000 | 50 to 500 | Cc1c(O)cccc1-c1c(N)c(C(N)=O)nc2c1c(C#N)cn2C (single isomer, unassigned) [Compound 6, (P)-5-amino-3-cyano-4-(3-hydroxy-2-methylphenyl)-1-methyl-1H-pyrrolo[2,3-b]pyridine-6-carboxamide]
≥ 5000 | ≥ 5000 |  | Cc1ccc(O)c(C)c1-c1cc(C(N)=O)nc2c1c(C#N)cn2CC(F)(F)F (single isomer, unassigned) [Compound 25]
≥ 5000 | ≥ 5000 |  | Cc1c(O)cccc1-c1c(N)c(C(N)=O)cn2ccnc12 (single isomer, unassigned) [Compound 45]
≥ 5000 | 50 to 500 |  | Cc1c(O)cccc1-c1c(N)c(C(N)=O)cn2c(C)nnc12 (single isomer, unassigned) [Compound 52, (P)-7-Amino-8-(3-hydroxy-2-methylphenyl)-3-methyl-[1,2,4]triazolo[4,3-a]pyridine-6-carboxamide]
 | ≥ 5000 | ≥ 5000 | Cc1c(O)cccc1-c1c(N)c(C(N)=O)cn2c(C)nnc12 (single isomer, unassigned) [Compound 53, (M)-7-amino-8-(3-hydroxy-2-methylphenyl)-3-methyl-[1,2,4]triazolo[4,3-a]pyridine-6-carboxamide]
 | < 50 | 50 to 500 | Cc1c(O)cccc1-c1c(N)c(C(N)=O)nc2c1c(C#N)nn2C (single isomer, unassigned) [Compound 58, (M)-5-Amino-3-cyano-4-(3-hydroxy-2-methylphenyl)-1-methyl-1H-pyrazolo[3,4-b]pyridine-6-carboxamide]
 | 1000 to 5000 | ≥ 5000 | Cc1c(O)cccc1-c1c(N)c(C(N)=O)nc2c1c(C#N)nn2C (single isomer, unassigned) [Compound 59, (P)-5-amino-3-cyano-4-(3-hydroxy-2-methylphenyl)-1-methyl-1H-pyrazolo[3,4-b]pyridine-6-carboxamide]
